Source: ChEMBL document CHEMBL1201862, “PubChem BioAssay data set” (2004)
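Growth conditions: 96-well plates. Treatment: test compound, 48 hours, 5 concentrations. Analysis: linear interpolation between bracketing concentrations; unreached endpoints set to highest concentration. Here, GI50 denotes the concentration required for 50% inhibition of growth.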 Activity calls are given as the source filed them. No stated cut-off is given here; in the data, active = GI50 up to about 1.1 µM and inactive = higher.

What was measured:
Assay in all cases: NCI tumour cell line growth inhibition, 48 h
SF-539 = tested on: SF-539
HCT-116 = tested on: HCT-116
DLD-1 = tested on: DLD-1
ACHN = tested on: ACHN
SR = tested on: SR
UACC-62 = tested on: UACC-62
EKVX = tested on: EKVX
M19-MEL = tested on: M19-MEL
HCT-15 = tested on: HCT-15
OVCAR-3 = tested on: OVCAR-3
SNB-75 = tested on: SNB-75
A549 = tested on: A549
SF-268 = tested on: SF-268
RXF 393 = tested on: RXF 393
SF-295 = tested on: SF-295
SK-MEL-5 = tested on: SK-MEL-5
KM12 = tested on: KM12
A498 = tested on: A498
M14 = tested on: M14
SNB-19 = tested on: SNB-19
RPMI-8226 = tested on: RPMI-8226
HOP-18 = tested on: HOP-18
CCRF-CEM = tested on: CCRF-CEM
NCI-H460 = tested on: NCI-H460
NCI-H226 = tested on: NCI-H226
SN12C = tested on: SN12C
HCC 2998 = tested on: HCC 2998
COLO 205 = tested on: COLO 205
HOP-92 = tested on: HOP-92
HL-60 = tested on: HL-60
OVCAR-5 = tested on: OVCAR-5
UACC-257 = tested on: UACC-257
SK-MEL-28 = tested on: SK-MEL-28
LOX IMVI = tested on: LOX IMVI
HOP-62 = tested on: HOP-62
NCI-H23 = tested on: NCI-H23
LXFL 529 = tested on: LXFL 529
UO-31 = tested on: UO-31
KM-20L2 = tested on: KM-20L2
OVCAR-8 = tested on: OVCAR-8
TK-10 = tested on: TK-10
IGROV-1 = tested on: IGROV-1
HT-29 = tested on: HT-29
OVCAR-4 = tested on: OVCAR-4
SW-620 = tested on: SW-620
CAKI-1 = tested on: CAKI-1
Malme-3M = tested on: Malme-3M
SNB-78 = tested on: SNB-78
DMS-114 = tested on: DMS-114
K562 = tested on: K562
MOLT-4 = tested on: MOLT-4
786-0 = tested on: 786-0
DMS-273 = tested on: DMS-273
NCI-H522 = tested on: NCI-H522
SK-MEL-2 = tested on: SK-MEL-2
U-251 = tested on: U-251
SK-OV-3 = tested on: SK-OV-3

CC(=O)N1[C@H](C(=O)O)CS[C@H]1c1ccncc1
GI50 (SF-539): > 100 µM (inactive)
GI50 (HCT-116): > 100 µM (inactive)
GI50 (DLD-1): > 100 µM (inactive)
GI50 (ACHN): > 100 µM (inactive)
GI50 (SR): > 100 µM (inactive)
GI50 (UACC-62): > 100 µM (inactive)
GI50 (EKVX): > 100 µM (inactive)
GI50 (M19-MEL): > 100 µM (inactive)
GI50 (HCT-15): > 100 µM
GI50 (OVCAR-3): > 100 µM (inactive)
GI50 (SNB-75): > 100 µM (inactive)
GI50 (A549): > 100 µM (inactive)
GI50 (SF-268): > 100 µM (inactive)
GI50 (RXF 393): > 100 µM (inactive)
GI50 (SF-295): > 100 µM (inactive)
GI50 (SK-MEL-5): > 100 µM (inactive)
GI50 (KM12): > 100 µM (inactive)
GI50 (A498): > 100 µM (inactive)
GI50 (M14): > 100 µM (inactive)
GI50 (SNB-19): > 100 µM (inactive)
GI50 (RPMI-8226): > 100 µM (inactive)
GI50 (HOP-18): > 100 µM (inactive)
GI50 (CCRF-CEM): > 100 µM (inactive)
GI50 (NCI-H460): > 100 µM (inactive)
GI50 (NCI-H226): > 100 µM (inactive)
GI50 (SN12C): > 100 µM (inactive)
GI50 (HCC 2998): > 100 µM (inactive)
GI50 (COLO 205): > 100 µM (inactive)
GI50 (HOP-92): > 100 µM (inactive)
GI50 (HL-60): > 100 µM (inactive)
GI50 (OVCAR-5): > 100 µM (inactive)
GI50 (UACC-257): > 100 µM (inactive)
GI50 (SK-MEL-28): > 100 µM (inactive)
GI50 (LOX IMVI): > 100 µM (inactive)
GI50 (HOP-62): > 100 µM (inactive)
GI50 (NCI-H23): > 100 µM (inactive)
GI50 (LXFL 529): > 100 µM (inactive)
GI50 (UO-31): > 100 µM (inactive)
GI50 (KM-20L2): > 100 µM (inactive)
GI50 (OVCAR-8): 32.7 µM (inactive)
GI50 (TK-10): > 100 µM (inactive)
GI50 (IGROV-1): > 100 µM (inactive)
GI50 (HT-29): > 100 µM (inactive)
GI50 (OVCAR-4): > 100 µM (inactive)
GI50 (SW-620): > 100 µM (inactive)
GI50 (CAKI-1): > 100 µM (inactive)
GI50 (Malme-3M): > 100 µM (inactive)
GI50 (SNB-78): > 100 µM (inactive)
GI50 (DMS-114): > 100 µM (inactive)
GI50 (K562): > 100 µM (inactive)
GI50 (MOLT-4): > 100 µM (inactive)
GI50 (786-0): > 100 µM (inactive)

COc1ccc(C[C@H](N)C(=O)N2C[C@H](CO)C[C@H](n3ccc(=O)[nH]c3=O)C2)cc1
GI50 (SF-539): > 100 µM (inactive)
GI50 (DMS-273): > 100 µM (inactive)
GI50 (HCT-116): > 100 µM (inactive)
GI50 (DLD-1): > 100 µM (inactive)
GI50 (NCI-H522): > 100 µM (inactive)
GI50 (ACHN): > 100 µM (inactive)
GI50 (SR): > 100 µM (inactive)
GI50 (UACC-62): > 100 µM (inactive)
GI50 (EKVX): > 100 µM (inactive)
GI50 (M19-MEL): > 100 µM (inactive)
GI50 (HCT-15): > 100 µM
GI50 (OVCAR-3): > 100 µM (inactive)
GI50 (A549): > 100 µM (inactive)
GI50 (SF-268): > 100 µM (inactive)
GI50 (RXF 393): > 100 µM (inactive)
GI50 (SK-MEL-5): > 100 µM (inactive)
GI50 (KM12): > 100 µM (inactive)
GI50 (M14): > 100 µM (inactive)
GI50 (SNB-19): > 100 µM (inactive)
GI50 (RPMI-8226): > 100 µM (inactive)
GI50 (HOP-18): > 100 µM (inactive)
GI50 (CCRF-CEM): > 100 µM (inactive)
GI50 (NCI-H460): > 100 µM (inactive)
GI50 (NCI-H226): > 100 µM (inactive)
GI50 (SN12C): > 100 µM (inactive)
GI50 (HCC 2998): > 100 µM (inactive)
GI50 (COLO 205): > 100 µM (inactive)
GI50 (HOP-92): > 100 µM (inactive)
GI50 (HL-60): 58.3 µM (inactive)
GI50 (OVCAR-5): > 100 µM (inactive)
GI50 (SK-MEL-28): > 100 µM (inactive)
GI50 (LOX IMVI): > 100 µM (inactive)
GI50 (HOP-62): > 100 µM (inactive)
GI50 (NCI-H23): > 100 µM (inactive)
GI50 (LXFL 529): > 100 µM (inactive)
GI50 (UO-31): > 100 µM (inactive)
GI50 (SK-MEL-2): > 100 µM (inactive)
GI50 (KM-20L2): > 100 µM (inactive)
GI50 (U-251): > 100 µM (inactive)
GI50 (OVCAR-8): > 100 µM (inactive)
GI50 (SK-OV-3): > 100 µM (inactive)
GI50 (TK-10): > 100 µM (inactive)
GI50 (IGROV-1): > 100 µM (inactive)
GI50 (HT-29): > 100 µM (inactive)
GI50 (OVCAR-4): > 100 µM (inactive)
GI50 (SW-620): > 100 µM (inactive)
GI50 (CAKI-1): > 100 µM (inactive)
GI50 (Malme-3M): > 100 µM (inactive)
GI50 (DMS-114): > 100 µM (inactive)
GI50 (K562): > 100 µM (inactive)
GI50 (MOLT-4): > 100 µM (inactive)

O=C1NC(=S)S/C1=C/c1ccco1
GI50 (SF-539): > 100 µM (inactive)
GI50 (DMS-273): > 100 µM (inactive)
GI50 (HCT-116): > 100 µM (inactive)
GI50 (DLD-1): > 100 µM (inactive)
GI50 (ACHN): > 100 µM (inactive)
GI50 (UACC-62): > 100 µM (inactive)
GI50 (EKVX): > 100 µM (inactive)
GI50 (HCT-15): > 100 µM
GI50 (OVCAR-3): 50.1 µM (inactive)
GI50 (SNB-75): > 100 µM (inactive)
GI50 (A549): > 100 µM (inactive)
GI50 (SF-268): > 100 µM (inactive)
GI50 (RXF 393): > 100 µM (inactive)
GI50 (SF-295): > 100 µM (inactive)
GI50 (SK-MEL-5): > 100 µM (inactive)
GI50 (A498): 11.1 µM (inactive)
GI50 (M14): > 100 µM (inactive)
GI50 (SNB-19): > 100 µM (inactive)
GI50 (NCI-H460): > 100 µM (inactive)
GI50 (NCI-H226): > 100 µM (inactive)
GI50 (SN12C): > 100 µM (inactive)
GI50 (HCC 2998): > 100 µM (inactive)
GI50 (COLO 205): > 100 µM (inactive)
GI50 (HOP-92): 49.4 µM (inactive)
GI50 (OVCAR-5): > 100 µM (inactive)
GI50 (UACC-257): 46.3 µM (inactive)
GI50 (SK-MEL-28): > 100 µM (inactive)
GI50 (LOX IMVI): > 100 µM (inactive)
GI50 (NCI-H23): > 100 µM (inactive)
GI50 (LXFL 529): > 100 µM (inactive)
GI50 (UO-31): > 100 µM (inactive)
GI50 (OVCAR-8): > 100 µM (inactive)
GI50 (SK-OV-3): > 100 µM (inactive)
GI50 (TK-10): > 100 µM (inactive)
GI50 (IGROV-1): > 100 µM (inactive)
GI50 (HT-29): > 100 µM (inactive)
GI50 (OVCAR-4): > 100 µM (inactive)
GI50 (SW-620): > 100 µM (inactive)
GI50 (CAKI-1): > 100 µM (inactive)
GI50 (DMS-114): > 100 µM (inactive)

CC(=O)[O-].[O-]c1c(Cl)cc(Cl)cc1/C=N/Nc1ccccn1.[Zn+2]
GI50 (SF-539): 1.26 µM (inactive)
GI50 (HCT-116): 0.338 µM (active)
GI50 (DLD-1): 0.415 µM (active)
GI50 (NCI-H522): 0.41 µM (active)
GI50 (ACHN): 0.535 µM (active)
GI50 (SR): 0.16 µM (active)
GI50 (UACC-62): 0.435 µM (active)
GI50 (EKVX): 2.18 µM (inactive)
GI50 (M19-MEL): 0.745 µM (active)
GI50 (HCT-15): 0.403 µM
GI50 (OVCAR-3): 0.268 µM (active)
GI50 (SNB-75): 4.99 µM (inactive)
GI50 (A549): 3.65 µM (inactive)
GI50 (SF-268): 0.94 µM (active)
GI50 (RXF 393): 0.923 µM (active)
GI50 (SF-295): 1.47 µM (inactive)
GI50 (SK-MEL-5): 0.593 µM (active)
GI50 (KM12): 6.3 µM (inactive)
GI50 (A498): > 100 µM (inactive)
GI50 (M14): 0.387 µM (active)
GI50 (SNB-19): 3.86 µM (inactive)
GI50 (RPMI-8226): 0.325 µM (active)
GI50 (CCRF-CEM): 0.244 µM (active)
GI50 (NCI-H460): 1.38 µM (inactive)
GI50 (NCI-H226): > 100 µM (inactive)
GI50 (SN12C): 5.82 µM (inactive)
GI50 (HCC 2998): 9.86 µM (inactive)
GI50 (COLO 205): 15.2 µM (inactive)
GI50 (HOP-92): 0.316 µM (active)
GI50 (HL-60): 0.234 µM (active)
GI50 (OVCAR-5): 2 µM (inactive)
GI50 (UACC-257): 0.418 µM (active)
GI50 (SK-MEL-28): 1.57 µM (inactive)
GI50 (LOX IMVI): 0.798 µM (active)
GI50 (HOP-62): 1.81 µM (inactive)
GI50 (NCI-H23): 0.32 µM (active)
GI50 (LXFL 529): 0.436 µM (active)
GI50 (UO-31): 0.31 µM (active)
GI50 (SK-MEL-2): 0.0601 µM (active)
GI50 (KM-20L2): 3.7 µM (inactive)
GI50 (U-251): 3.12 µM (inactive)
GI50 (OVCAR-8): 0.237 µM (active)
GI50 (IGROV-1): 1.96 µM (inactive)
GI50 (HT-29): 6.82 µM (inactive)
GI50 (SW-620): 1.74 µM (inactive)
GI50 (Malme-3M): 0.76 µM (active)
GI50 (DMS-114): 0.239 µM (active)
GI50 (K562): 0.372 µM (active)
GI50 (MOLT-4): 0.183 µM (active)
GI50 (786-0): 1.59 µM (inactive)
